For assay [1], the system named is MMP1 expression by activated primary synovial fibroblasts. Put plainly: 'MMP assay': MMP1 expression by complex trigger activated synovial fibroblasts (MMP1 ELISA). It counts as cell-based. The conditions noted are these: Homo sapiens, Fibroblast; Table 3; RASFs, complex trigger, 48 hrs, MMP1 ELISA. (In general: In an ELISA, binding on a coated surface is turned into a signal by an enzyme label.)

The target in assay [2] is T1, MAPKAPK5 (Homo sapiens, UniProt Q8IW41).
T1 sequence (Q8IW41 1-471 isoform Q8IW41-2): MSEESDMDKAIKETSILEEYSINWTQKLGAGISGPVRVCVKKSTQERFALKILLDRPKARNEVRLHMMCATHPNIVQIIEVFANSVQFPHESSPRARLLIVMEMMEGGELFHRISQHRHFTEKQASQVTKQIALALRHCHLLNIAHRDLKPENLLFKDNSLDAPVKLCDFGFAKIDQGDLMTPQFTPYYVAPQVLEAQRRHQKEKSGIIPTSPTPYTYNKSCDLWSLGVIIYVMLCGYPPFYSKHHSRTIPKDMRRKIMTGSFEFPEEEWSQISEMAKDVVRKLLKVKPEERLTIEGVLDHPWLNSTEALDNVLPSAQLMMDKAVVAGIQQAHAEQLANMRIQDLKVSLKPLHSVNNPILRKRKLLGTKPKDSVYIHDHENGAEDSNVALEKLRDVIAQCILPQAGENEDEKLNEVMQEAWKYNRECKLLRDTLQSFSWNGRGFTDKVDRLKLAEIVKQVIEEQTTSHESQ
As to the kind of experiment: MAPKAP-K5 assay (FlashPlate kinase assay).

Assay [3] deals with TNFα release by human PBMCs. Put plainly: Cytokine release by LPS stimulated human PBMCs (TNFα ELISA). It is filed as cell-based. The conditions noted are these: PBMC, 24 h, Table 5, LPS 1 μg/mL. As to the method: For the assay PBMCs are seeded at 2.5E6 cells/mL in 160 μL in 96-well plates (Nunc). Serial dilution of the test compounds are made first in DMSO (Sigma) and then diluted 50-fold in M199 medium (Gibco) containing 1% heat-inactivated FBS. Compounds are further 1/10 diluted in the assay plates to obtain final DMSO concentration of 0.2%. Cells are preincubated with the compounds for 1 hr at 37° C., 5% CO2. Then, cells are stimulated with LPS (Escherichia coli serotype 026:B6, Cat. No. L2654, Sigma) that is added in a volume of 20 μL to a final concentration of 1 μg/mL and cells are further cultured for 24 hr. The plates are centrifuged and the supernatant is collected and stored at −80° C. until analysis of appropriate dilutions in ELISAs.
After 4 hr incubation at RT, blocking buffer is removed and plates are washed once with PBST (1×PBS with 0.05% Tween-20 (Sigma)). Then, 40 μL of sample is transferred to the ELISA plates and plates are incubated at 4° C. […] After 2 h of incubation at RT, plates are washed as described above and 35 μL/well of a 1/2000 dilution of streptavidin-HRP conjugate (Cat. No. SNN2004, Biosource) in buffer D is added. After 45 min, plates are washed as described above and incubated for 5 min with 50 μL/well BM Chemiluminescence ELISA Substrate POD (Roche). Readout is performed on the Luminoscan Ascent Luminometer (Labsystems) with an integration time of 100 msec delivering raw data (RLU: relative luminescence units). The following controls are included in the experiments, a maximal signal control, in which the cells are activated by LPS but only the 0.2% DMSO vehicle (and thus no compound) is added. […] A minimal signal control is also included in these experiments. Here, cells are not triggered. […] Where compounds are tested at 8 concentrations (1/3 serial dilution), EC50-values can be calculated by curve fitting of the means of the PIN data achieved for a compound at each test concentration.

Molecules are shown by their SMILES.

What is called EC50 is the concentration at which the effect is half-maximal. Higher therefore signals a need for much substance. A word on the IC50: it is the concentration that gives 50% inhibition. Low readings indicate inhibition by little substance, high ones a need for much substance. Consider `OCc1cc(Nc2ncc(-c3cn[nH]c3)n3ncnc23)ccc1N1CCOCC1` [Compound 37, {5-[5-(1H-Pyrazol-4-yl)-[1,2,4]triazolo[1,5-a]pyrazin-8-ylamino]-2-morpholinophenyl}methanol], for which the EC50 in assay [1] was 501 to 1000 nM; in assay [3] it was more than 1000 nM. In assay [2], this compound showed an IC50 of more than 1000 nM.

As for `CC(C)N1CCN(c2ccc(Nc3ncc(-c4cn[nH]c4)n4ncnc34)cc2)CC1` [Compound 38], the EC50 in assay [1] and in assay [3] was more than 1000 nM each time. The same compound displayed an IC50 in assay [2] of 501 to 1000 nM.

Take `O=C1CCc2cc(-c3cnc(Nc4ccc(N5CCOCC5)cc4)c4ncnn34)ccc2N1` [Compound 39]: the EC50 in assay [1] and in assay [3] was more than 1000 nM each time. In assay [2], this compound showed an IC50 of more than 1000 nM.

Consider `c1nc2c(Nc3ccc(N4CCNCC4)cc3)ncc(-c3cn[nH]c3)n2n1` [Compound 40], for which the values for the EC50 in assay [1] and in assay [3] were more than 1000 nM and 501 to 1000 nM, respectively. This compound also showed an IC50 in assay [2] of 501 to 1000 nM.

On to `c1nc2c(Nc3ccc(N4CCOCC4)nc3)ncc(-c3cn[nH]c3)n2n1` [Compound 41, (6-[Morpholin-4-yl]pyridin-3-yl)-[5-(1H-pyrazol-4-yl)-[1,2,4]triazolo[1,5-a]pyrazin-8-yl]amine], for which the EC50 in assay [1] and in assay [3] was more than 1000 nM each time. In addition, in assay [2], the IC50 was more than 1000 nM.

Regarding `c1nc2c(Nc3ccc(N4CCN(CC5CC5)CC4)nc3)ncc(-c3cn[nH]c3)n2n1` [Compound 42, [6-(4-[Cyclopropylmethyl]piperazin-1-yl)pyridin-3-yl]-[5-(1H-pyrazol-4-yl)-[1,2,4]triazolo[1,5-a]pyrazin-8-yl]amine], the EC50 in assay [1] and in assay [3] was more than 1000 nM in each case. In assay [2], this compound showed an IC50 of more than 1000 nM.

Take `FC(F)(F)CN1CCN(c2ccc(Nc3ncc(-c4cn[nH]c4)n4ncnc34)cn2)CC1` [Compound 44, [5-(1H-Pyrazol-4-yl)-[1,2,4]triazolo[1,5-a]pyrazin-8-yl]-{6-[4-(2,2,2-trifluoroethyl)piperazin-1-yl]pyridin-3-yl}amine]: the EC50 in assay [1] and in assay [3] was more than 1000 nM in each case. For the same compound, the half-maximal inhibitory concentration (IC50) in assay [2] was more than 1000 nM.

As for `FC(F)(F)CN1CCN(c2ccc(Nc3ncc(-c4cn[nH]c4)n4ncnc34)cc2)CC1` [Compound 45], the EC50 in assay [1] and in assay [3] was more than 1000 nM each time. In addition, the IC50 in assay [2] is more than 1000 nM.

In the case of `c1nc2c(Nc3ccc(N4CCN(CC5CC5)CC4)cc3)ncc(-c3cn[nH]c3)n2n1` [Compound 46, {4-[4-(Cyclopropylmethyl)piperazin-1-yl]phenyl}-[5-(1H-pyrazol-4-yl)-[1,2,4]triazolo[1,5-a]pyrazin-8-yl]amine], the EC50 in assay [1] and in assay [3] was more than 1000 nM in each case. This compound also registered a half-maximal inhibitory concentration (IC50) in assay [2] of more than 1000 nM.

Turning to `NC(=O)c1cc(-c2cnc(Nc3ccc(N4CCOCC4)nc3)c3ncnn23)cs1` [Compound 47, 4-[8-(6-[Morpholin-4-yl]pyridin-3-ylamino)-[1,2,4]triazolo[1,5-a]pyrazin-5-yl]thiophene-2-carboxylic acid amide], the EC50 in assay [1] was 501 to 1000 nM; in assay [3], more than 1000 nM. Further, in assay [2], the IC50 lay in the range of 101 to 500 nM.

With `c1ccc2c(-c3cnc(Nc4ccc(N5CCOCC5)cc4)c4ncnn34)csc2c1` [Compound 48, (5-Benzo[b]thiophen-3-yl-[1,2,4]triazolo[1,5-a]pyrazin-8-yl)-(4-morpholin-4-ylphenyl)amine], the EC50 in assay [1] is 101 to 500 nM; in assay [3], more than 1000 nM. Moreover, in assay [2], the IC50 is more than 1000 nM.

In the case of `CC(C)N1CCN(c2ccc(Nc3ncc(-c4csc5ccccc45)n4ncnc34)cc2)CC1` [Compound 49], the EC50 in assay [1] and in assay [3] was more than 1000 nM throughout. In assay [2], this compound yielded an IC50 of more than 1000 nM.

For `c1nc2c(Nc3ccc(N4CCOCC4)cc3)ncc(-c3ccsc3)n2n1` [Compound 50, (4-Morpholin-4-ylphenyl)-(5-thiophen-3-yl-[1,2,4]triazolo[1,5-a]pyrazin-8-yl)amine], the EC50 in assay [1] is 101 to 500 nM; in assay [3], more than 1000 nM. The IC50 in assay [2] was more than 1000 nM.

For the compound `CC(C)N1CCN(c2ccc(Nc3ncc(-c4ccsc4)n4ncnc34)cc2)CC1` [Compound 51, [4-(4-Isopropylpiperazin-1-yl)phenyl]-(5-thiophen-3-yl-[1,2,4]triazolo[1,5-a]pyrazin-8-yl)amine], the EC50 in assay [1] is 501 to 1000 nM; in assay [3] it was more than 1000 nM. Moreover, the IC50 in assay [2] is more than 1000 nM.

As to `CCc1[nH]ncc1-c1cnc(Nc2ccc(N3CCOCC3)cc2)c2ncnn12` [Compound 52, 5-(5-Ethyl-1H-pyrazol-4-yl)-N-(4-morpholinophenyl)-[1,2,4]triazolo[1,5-a]pyrazin-8-amine], the EC50 in assay [1] and in assay [3] was more than 1000 nM throughout. In assay [2], this compound returned an IC50 of more than 1000 nM.

As to `O=C1NS(=O)(=O)c2cc(-c3cnc(Nc4ccc(N5CCOCC5)cc4)c4ncnn34)ccc21` [Compound 53, 6-[8-(4-Morpholin-4-yl-phenylamino)-[1,2,4]triazolo[1,5-a]pyrazin-5-yl]-1,1-dioxo-1,2-dihydro-1λ^6-benzo[d]isothiazol-3-one], the figures for the EC50 in assay [1] and in assay [3] were 501 to 1000 nM and more than 1000 nM, respectively. For the same compound, the IC50 in assay [2] was more than 1000 nM.

For `NC(=O)c1cc(-c2cnc(Nc3ccc(N4CCN(CC5CC5)CC4)nc3)c3ncnn23)cs1` [Compound 54, 4-{8-[6-(4-[Cyclopropylmethyl]piperazin-1-yl)-pyridin-3-ylamino]-[1,2,4]triazolo[1,5-a]pyrazin-5-yl}thiophene-2-carboxylic acid amide], the EC50 in assay [1] lay in the range of 101 to 500 nM; in assay [3] it was 501 to 1000 nM. The IC50 in assay [2] lay in the range of 101 to 500 nM.

Take `NC(=O)c1cc(-c2cnc(Nc3ccc(N4CCN(CC(F)(F)F)CC4)nc3)c3ncnn23)cs1` [Compound 56, 4-(8-{6-[4-(2,2,2-Trifluoroethyl)piperazin-1-yl]-pyridin-3-ylamino}-[1,2,4]triazolo[1,5-a]pyrazin-5-yl)thiophene-2-carboxylic acid amide]: the figures for the EC50 in assay [1] and in assay [3] were 501 to 1000 nM and more than 1000 nM, respectively. In assay [2], the IC50 was in the range of 501 to 1000 nM.

With `NC(=O)c1cc(-c2cnc(Nc3ccc(N4CCN(CC(F)(F)F)CC4)cc3)c3ncnn23)cs1` [Compound 57, 4-(8-{4-[4-(2,2,2-Trifluoroethyl)piperazin-1-yl]-phenylamino}-[1,2,4]triazolo[1,5-a]pyrazin-5-yl)thiophene-2-carboxylic acid amide], the results for the EC50 in assay [1] and in assay [3] were 101 to 500 nM and more than 1000 nM, respectively. Moreover, in assay [2], the IC50 lay in the range of 101 to 500 nM.

As for `NC(=O)c1cc(-c2cnc(Nc3ccc(N4CCN(CC5CC5)CC4)cc3)c3ncnn23)cs1` [Compound 58, 4-{8-[4-(4-(Cyclopropylmethyl)piperazin-1-yl)-phenylamino]-[1,2,4]triazolo[1,5-a]pyrazin-5-yl}thiophene-2-carboxylic acid amide], the EC50 in assay [1] was 101 to 500 nM; in assay [3] it was more than 1000 nM. The compound further returned an IC50 in assay [2] of 101 to 500 nM.

Turning to `c1nc2c(Nc3ccc(N4CCN(C5CC5)CC4)cc3)ncc(-c3cn[nH]c3)n2n1` [Compound 59, [4-(4-Cyclopropylpiperazin-1-yl)phenyl]-[5-(1H-pyrazol-4-yl)-[1,2,4]triazolo[1,5-a]pyrazin-8-yl]amine], the EC50 in assay [1] and in assay [3] was more than 1000 nM each time. In assay [2], the IC50 is more than 1000 nM.

Take `c1nc2c(Nc3ccc(N4CCN(C5CC5)CC4)nc3)ncc(-c3cn[nH]c3)n2n1` [Compound 60, [6-(4-Cyclopropylpiperazin-1-yl)pyridin-3-yl]-[5-(1H-pyrazol-4-yl)-[1,2,4]triazolo[1,5-a]pyrazin-8-yl]amine]: the EC50 in assay [1] and in assay [3] was more than 1000 nM throughout. This compound displayed an IC50 in assay [2] of more than 1000 nM.

In the case of `NC(=O)c1nc(-c2cnc(Nc3ccc(N4CCOCC4)cc3)c3ncnn23)cs1` [Compound 61, 4-[8-(4-Morpholin-4-ylphenylamino)-[1,2,4]triazolo[1,5-a]pyrazin-5-yl]thiazole-2-carboxylic acid amide], the EC50 was 501 to 1000 nM in assay [1] and more than 1000 nM in assay [3]. Also, the IC50 in assay [2] was more than 1000 nM.

For the origin of these results see patent publication US20100298300A1, “TRIAZOLOPYRAZINE COMPOUNDS USEFUL FOR THE TREATMENT OF DEGENERATIVE & INFLAMMATORY DISEASES” (priority 2006, published 2010).
